{"source": "patent US9610268B2", "about": "“Trans-aconitic acid compounds and uses thereof for inhibiting phosphodiesterase 7” (Academia Sinica, priority 2013, dated 2017)", "key": {"[1]": {"biological_target": "T1, PDE7A1 (Homo sapiens, UniProt Q13946)", "T1 construct": "purchased CALBIOCHEM 524751", "T1 sequence (Q13946 whole entry)": "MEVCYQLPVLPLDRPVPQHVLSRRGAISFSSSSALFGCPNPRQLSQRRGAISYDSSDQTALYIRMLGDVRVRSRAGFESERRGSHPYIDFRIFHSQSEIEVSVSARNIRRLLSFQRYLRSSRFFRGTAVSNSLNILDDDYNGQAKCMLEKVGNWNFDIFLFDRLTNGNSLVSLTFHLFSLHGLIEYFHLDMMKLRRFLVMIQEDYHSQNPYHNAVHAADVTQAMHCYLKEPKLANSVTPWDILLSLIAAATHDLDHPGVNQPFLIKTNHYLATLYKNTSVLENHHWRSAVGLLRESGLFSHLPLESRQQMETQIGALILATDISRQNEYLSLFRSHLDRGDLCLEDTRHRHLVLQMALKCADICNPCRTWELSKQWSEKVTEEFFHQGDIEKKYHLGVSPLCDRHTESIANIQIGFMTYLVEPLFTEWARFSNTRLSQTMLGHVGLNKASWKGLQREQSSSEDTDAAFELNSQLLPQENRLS", "test": "PDE7 activity and inhibition assay (HPLC detection of cAMP and AMP)", "format": "biochemical", "conditions": "inhibitor final concentration 0.1 μg/μl; substrate cAMP; 90 minutes", "procedure": "The activity of PDE7A1 was determined in an enzymatic assay as described below, using: • Enzyme: 0.005 U/μl PDE7A1 (Cat.#: 524751, CALBIOCHEM) • Substrate: 0.0008 μg/μl cAMP (Lot.#: BCBF5219V, SIGMA-ALDRICH) • Buffer: 10 mM Tris-HCl, pH 7.5 • Inhibitor as mentioned above: 0.3 μg/μl as a result final concentration 0.1 μg/μl\nAn example of the enzymatic assay for determining the activity of PDE7A1 is illustrated in FIG. 2. Briefly, substrate (10 μl), PDE7A1 (10 μl), and buffer (10 μl; as a control) were placed in an eppendorf tube in a total volume of 30 μl and immediately (at 0 minute) injected into HPLC (L-7420, HITACHI) and the contents of cAMP and AMP in the reaction mixture were detected at 254 nm under the following conditions:\nSolvent: 0.2M NaH2PO4, 25 mM TBA-HS, 15% ACN, pH6\nThe peak areas of the cAMP and AMP were measured.\n90 minutes later, the control mixture was injected again into the HPLC apparatus and the peak areas of cAMP and AMP were measured as described above and compared with that of the initial injection.\nReaction mixtures containing each of the four inhibitors (10 μl) in the same total volume were injected into the HPLC apparatus following the same procedure as described above and the peak areas of cAMP and AMP were measured and compared with that of the control sample. The percentages of inhibition were calculated."}, "[2]": {"test_system": "PDE1", "test": "PDE1 activity and inhibition assay (bis-p-nitrophenyl phosphate, OD 405 nm)", "format": "biochemical", "conditions": "inhibitor final concentration 0.125 μg/μl; substrate bis-p-nitrophenyl phosphate", "procedure": "The activity of PDE1 was determined in an enzymatic assay as described below, using: • Enzyme: 10 μg/μl PDE1 (Lot.#: SLBD8711V, SIGMA-ALDRICH) • Substrate: 0.001 M Bis-p-nitrophenyl phosphate (Lot.#: 021M5003V, SIGMA-5 ALDRICH) • Buffer: 0.1M Tris-HCl, pH 8.9 • Inhibitor (trans-aconitic acid (TAA), Calycosin, Kaempferol 3-O-rutinoside, and Wogonin): 1 μg/μl (final concentration 0.125 μg/μl)\nAn example of the enzymatic assay is illustrated in FIG. 1. Briefly, substrate (50 μl) and buffer (200 μl) were placed in a plastic disposable cuvette (Cat.#: BL6224, Basic Life). PDE1 (100 μl) and each of the four inhibitors (50 μl) or the buffer (50 μl) as a control were then added into the cuvette. The total volume of the reaction mixture is 400 μl. After incubating the enzymatic reaction mixture for a suitable period of time, the optical density was detected by a spectrophotometer at a wave length of 405 nm (U-3300, HITACHI). The optical densities of the reaction mixtures containing the inhibitors were compared with that of the control mixture and the percentages of inhibition were calculated."}}}
{"smiles": "O=C(O)/C=C(\\CC(=O)O)C(=O)O", "note": "[TAA, trans-aconitic acid]", "values": [{"measurement": "inhibitory activity against PDE7A1 (percentage of inhibition, FIG. 3)", "setting": "[1]", "value": "specifically inhibits PDE7A1"}, {"measurement": "inhibitory activity against PDE1 (percentage of inhibition, FIG. 3)", "setting": "[2]", "value": "not PDE1"}]}
